In brackets after ≈: the same amount, converted by molar mass. Activity calls are given as the source filed them. The calls are words filed in the database; no cut-off is given here. Where a SMILES comes first, the peptide text is derived from it.
How the values were obtained:
Staphylococcus aureus [1] = test: Antibacterial activity against Staphylococcus aureus ATCC 29213 assessed as reduction in microbial growth incubated for 24 hrs by microbroth dilution method; type: functional
Klebsiella pneumoniae [2] = test: Antibacterial activity against imipenem resistant Klebsiella pneumoniae ATCC BAA 1705 assessed as reduction in microbial growth incubated for 24 hrs by microbroth dilution method; type: functional
Pseudomonas aeruginosa [3] = test: Antibacterial activity against Pseudomonas aeruginosa ATCC 27883 assessed as reduction in microbial growth incubated for 24 hrs by microbroth dilution method; type: functional
Klebsiella pneumoniae [4] = test: Antibacterial activity against Klebsiella pneumoniae ATCC 13883 assessed as reduction in microbial growth incubated for 24 hrs by microbroth dilution method; type: functional
Escherichia coli [5] = test: Synergistic antibacterial activity against Escherichia coli ATCC 25922 assessed as fractional inhibitory concentration index incubated for 24 hrs in presence of meropenem by checkerboard assay; type: functional
Klebsiella pneumoniae [6] = test: Synergistic antibacterial activity against Klebsiella pneumoniae ATCC 13883 assessed as fractional inhibitory concentration index incubated for 24 hrs in presence of meropenem by checkerboard assay; type: functional
Klebsiella pneumoniae [7] = test: Synergistic antibacterial activity against imipenem resistant Klebsiella pneumoniae ATCC BAA 1705 assessed as fractional inhibitory concentration index incubated for 24 hrs in presence of meropenem; type: functional
Staphylococcus aureus [8] = test: Bactericidal activity against methicillin resistant Staphylococcus aureus ATCC BAA 1556 assessed as reduction in colony formation at MIC measured at 8 to 12 hrs by Time kill assay; type: functional, organism-based; settings: time 8-12 hrs
Pseudomonas aeruginosa [9] = test: Bactericidal activity against Pseudomonas aeruginosa ATCC BAA 1744 assessed as reduction in bacterial growth at MIC measured after 4 hrs by Time kill assay; type: functional, organism-based
Pseudomonas aeruginosa [10] = test: Bactericidal activity against Pseudomonas aeruginosa ATCC BAA 1744 assessed as decrease of bacterial growth at MIC measured after 12 hrs by Time kill assay; type: functional, organism-based
Pseudomonas aeruginosa [11] = test: Bactericidal activity against Pseudomonas aeruginosa ATCC BAA 1744 assessed as reduction in colony formation at MIC measured after 18 hrs by Time kill assay; type: functional, organism-based
Klebsiella pneumoniae [12] = test: Bactericidal activity against Klebsiella pneumoniae ATCC BAA 1705 assessed as decrease of bacterial growth at MIC by Time kill assay; type: functional, organism-based
Cell membrane [13] = test: Induction of membrane disruption in Pseudomonas aeruginosa ATCC BAA 1744 assessed as increase in PI positive cells at MIC incubated for 2 hrs by Propidium iodide staining based FACS cytometry analysis relative to control
Cell membrane [14] = test: Induction of membrane disruption in Pseudomonas aeruginosa ATCC BAA 1744 assessed as increase in PI positive cells at 4 times of MIC incubated for 2 hrs by Propidium iodide staining based FACS cytometry analysis relative to control; type: subcellular
HepaRG [15] = test: Cytotoxicity against human HepaRG cells assessed as assessed as reduction in cell viability at 10 ug/ml incubated for 24 hrs by microplate reader analysis; type: toxicity, cell-based; settings: dose 10 µg/ml
Staphylococcus aureus [16] = test: Synergistic antibacterial activity against methicillin resistant Staphylococcus aureus ATCC BAA -1556 assessed as fractional inhibitory concentration index incubated for 24 hrs in presence of daptomycin by checkerboard assay; type: functional
Pseudomonas aeruginosa [17] = test: Synergistic antibacterial activity against Pseudomonas aeruginosa ATCC 27883 assessed as fractional inhibitory concentration index incubated for 24 hrs in presence of tetracycline by checkerboard assay; type: functional
Pseudomonas aeruginosa [18] = test: Synergistic antibacterial activity against Pseudomonas aeruginosa ATCC 27883 assessed as fractional inhibitory concentration index incubated for 24 hrs in presence of tobramycin by checkerboard assay; type: functional
Pseudomonas aeruginosa [19] = test: Synergistic antibacterial activity against Pseudomonas aeruginosa ATCC 27883 assessed as fractional inhibitory concentration index incubated for 24 hrs in presence of ciprofloxacin by checkerboard assay; type: functional
Pseudomonas aeruginosa [20] = test: Synergistic antibacterial activity against Pseudomonas aeruginosa ATCC 27883 assessed as fractional inhibitory concentration index incubated for 24 hrs in presence of vancomycin by checkerboard assay; type: functional
Klebsiella pneumoniae [21] = test: Synergistic antibacterial activity against Klebsiella pneumoniae ATCC BAA 1705 assessed as fractional inhibitory concentration index incubated for 24 hrs in presence of clindamycin by checkerboard assay; type: functional
Klebsiella pneumoniae [22] = test: Synergistic antibacterial activity against Klebsiella pneumoniae ATCC BAA 1705 assessed as fractional inhibitory concentration index incubated for 24 hrs in presence of vancomycin by checkerboard assay; type: functional
Escherichia coli [23] = test: Synergistic antibacterial activity against Escherichia coli ATCC 25922 assessed as fractional inhibitory concentration index incubated for 24 hrs in presence of tetracycline by checkerboard assay; type: functional
Klebsiella pneumoniae [24] = test: Antibacterial activity against Klebsiella pneumoniae ATCC BAA 1705 assessed as polymyxin B MIC incubated for 24 hrs by microbroth dilution assay; type: functional
Escherichia coli [25] = test: Synergistic antibacterial activity against Escherichia coli ATCC 25922 assessed as fractional inhibitory concentration index incubated for 24 hrs in presence of vancomycin by checkerboard assay; type: functional
Staphylococcus aureus [26] = test: Antibacterial activity against Staphylococcus aureus ATCC BAA -1556 assessed clindamycin MIC incubated for 24 hrs by microbroth dilution assay; type: functional
Staphylococcus aureus [27] = test: Antibacterial activity against Staphylococcus aureus ATCC BAA -1556 assessed as vancomycin MIC incubated for 24 hrs by microbroth dilution assay; type: functional
Staphylococcus aureus [28] = test: Antibacterial activity against Staphylococcus aureus ATCC BAA -1556 assessed as daptomycin MIC incubated for 24 hrs by microbroth dilution assay; type: functional
Pseudomonas aeruginosa [29] = test: Antibacterial activity against Pseudomonas aeruginosa ATCC 27883 assessed as levofloxacin MIC incubated for 24 hrs by microbroth dilution assay; type: functional
Pseudomonas aeruginosa [30] = test: Antibacterial activity against Pseudomonas aeruginosa ATCC 27883 assessed as ciprofloxacin MIC incubated for 24 hrs by microbroth dilution assay; type: functional
Escherichia coli [31] = test: Antibacterial activity against Escherichia coli ATCC 25922 assessed as tetracycline MIC incubated for 24 hrs by microbroth dilution assay; type: functional
Escherichia coli [32] = test: Antibacterial activity against Escherichia coli ATCC 25922 assessed as polymyxin B MIC incubated for 24 hrs by microbroth dilution assay; type: functional
Escherichia coli [33] = test: Antibacterial activity against Escherichia coli ATCC 25922 assessed as vancomycin MIC incubated for 24 hrs by microbroth dilution assay; type: functional
Klebsiella pneumoniae [34] = test: Antibacterial activity against Klebsiella pneumoniae ATCC BAA 1705 assessed as tobramycin MIC incubated for 24 hrs by microbroth dilution assay; type: functional
Klebsiella pneumoniae [35] = test: Antibacterial activity against Klebsiella pneumoniae ATCC BAA 1705 assessed as kanamycin MIC incubated for 24 hrs by microbroth dilution assay; type: functional
Klebsiella pneumoniae [36] = test: Antibacterial activity against Klebsiella pneumoniae ATCC BAA 1705 assessed as vancomycin MIC incubated for 24 hrs by microbroth dilution assay; type: functional
Klebsiella pneumoniae [37] = test: Antibacterial activity against Klebsiella pneumoniae ATCC BAA 1705 assessed as daptomycin MIC incubated for 24 hrs by microbroth dilution assay; type: functional
[38] = Cytotoxicity against HEK293 cells assessed as effect on cell viability at 10 to 25 ug/ml incubated for 24 hrs by microplate reader analysis relative to control; type: toxicity, cell-based; settings: human, at 10 to 25 µg/mL, dose 10-25 µg/ml, read-out: Activity
HepaRG [39] = test: Cytotoxicity against human HepaRG cells assessed as assessed as reduction in cell viability at 50 to 150 ug/ml incubated for 24 hrs by microplate reader analysis relative to control; type: toxicity, cell-based; settings: at 50 to 150 µg/mL, dose 50-150 µg/ml
[40] = Hemolytic activity in human Red blood cell incubated for 2 hrs by spectrophotometric analysis; type: toxicity, cell-based, Erythrocyte; settings: red blood cells (erythrocytes)

**Q.** What does the source list for N=C(N)NCCC[C@@H]1NC(=O)[C@H](CCCNC(=N)N)NC(=O)[C@H](CCCNC(=N)N)NC(=O)[C@H](CCCNC(=N)N)NC(=O)[C@H](Cc2c[nH]c3ccccc23)NC(=O)[C@H](Cc2c[nH]c3ccccc23)NC(=O)[C@H](Cc2c[nH]c3ccccc23)NC(=O)[C@H](Cc2c[nH]c3ccccc23)NC(=O)[C@H](CCCCN)NC(=O)[C@H](CCCNC(=N)N)NC1=O (cyclo(KWWWWRRRRR))?
**A.** MIC (Staphylococcus aureus [1]): 4 µg/mL; MIC (Klebsiella pneumoniae [2]): 32 µg/mL; MIC (Pseudomonas aeruginosa [3]): 16 µg/mL; MIC (Klebsiella pneumoniae [4]): 16 µg/mL; fractional inhibitory concentration index (FICI) (Escherichia coli [5]): 1.25; fractional inhibitory concentration index (FICI) (Klebsiella pneumoniae [6]): 0.625; fractional inhibitory concentration index (FICI) (Klebsiella pneumoniae [7]): 0.75; Activity (Staphylococcus aureus [8]): Active; Activity (Pseudomonas aeruginosa [9]): Active; Activity (Pseudomonas aeruginosa [10]): Active; Activity (Pseudomonas aeruginosa [11]): Active; Activity (Klebsiella pneumoniae [12]): Active; Activity (Cell membrane [13]): 39.9%; Activity (Cell membrane [14]): 66.8%; Activity (HepaRG [15]): Non-Toxic; fractional inhibitory concentration index (FICI) (Staphylococcus aureus [16]): 0.5; fractional inhibitory concentration index (FICI) (Pseudomonas aeruginosa [17]): 0.375; fractional inhibitory concentration index (FICI) (Pseudomonas aeruginosa [18]): 0.5; fractional inhibitory concentration index (FICI) (Pseudomonas aeruginosa [19]): 0.5; fractional inhibitory concentration index (FICI) (Pseudomonas aeruginosa [20]): 0.531; fractional inhibitory concentration index (FICI) (Klebsiella pneumoniae [21]): 0.257; fractional inhibitory concentration index (FICI) (Klebsiella pneumoniae [22]): 0.5625; fractional inhibitory concentration index (FICI) (Escherichia coli [23]): 0.5; MIC (Klebsiella pneumoniae [24]): 0.063 µg/mL; fractional inhibitory concentration index (FICI) (Escherichia coli [25]): 0.5625; MIC (Staphylococcus aureus [26]): 0.031 µg/mL (≈ 0.0187 µM); MIC (Staphylococcus aureus [27]): 0.25 µg/mL; MIC (Staphylococcus aureus [28]): 0.5 µg/mL; MIC (Pseudomonas aeruginosa [29]): 0.125 µg/mL; MIC (Pseudomonas aeruginosa [30]): 0.125 µg/mL; MIC (Escherichia coli [31]): 2 µg/mL; MIC (Escherichia coli [32]): 0.125 µg/mL; MIC (Escherichia coli [33]): 16 µg/mL; MIC (Klebsiella pneumoniae [34]): 2 µg/mL; MIC (Klebsiella pneumoniae [35]): 8 µg/mL; MIC (Klebsiella pneumoniae [36]): 16 µg/mL; MIC (Klebsiella pneumoniae [37]): 16 µg/mL; viability at 24 h [38]: 86%; Activity (HepaRG [39]): 71%; HC50 at 2 h [40]: 320 µg/mL
